Assay results as given in the Deep4Chem optical property database.

Experiment: solvent given as SMILES

CC1(C)C(/C=C/C2=C(c3ccc(C(=O)O)cc3)C(=C/C=C3/N(CCCCS(=O)(=O)[O-])c4ccc5ccccc5c4C3(C)C)/CCC2)=[N+](CCCCS(=O)(=O)[O-])c2ccc3ccccc3c21
fluorescence lifetime (in CC(C)=O): 0.84 ns
fluorescence lifetime (in CCO): 0.69 ns
fluorescence lifetime (in CO): 0.61 ns
fluorescence lifetime (in CS(C)=O): 0.98 ns
fluorescence lifetime (in ClC(Cl)Cl): 1.62 ns
fluorescence lifetime (in ClCCl): 1.34 ns
fluorescence lifetime (in O): 0.2 ns

CCN(CC)/C(C)=N\c1ccc2c3c(cccc13)C(=O)c1ccccc1-2
fluorescence lifetime (in ClC(Cl)Cl): 8.07 ns

CCCCCCCCCCCCN1C(=O)c2ccc3c4ccc5c6c(ccc(c7ccc(c2c37)C1=O)c64)C(=O)N(CCCCCCCCCCCC)C5=O
fluorescence lifetime (in CN(C)C=O): 4.1 ns

CC1(C)C(=O)C=Cc2ccc(N3CCC3)cc21
fluorescence lifetime (in O): 3.83 ns

CCCCCCCCN1c2ccc(C#Cc3ccc(OC)cc3)cc2Sc2cc(C=O)ccc21
fluorescence lifetime (in C1CCOC1): 7.1 ns
fluorescence lifetime (in CC#N): 6.03 ns
fluorescence lifetime (in CCCCCC): 6.46 ns
fluorescence lifetime (in CO): 5.08 ns
fluorescence lifetime (in CS(C)=O): 6.6 ns
fluorescence lifetime (in Cc1ccccc1): 7.42 ns
fluorescence lifetime (in ClC(Cl)Cl): 5.65 ns

c1ccc2cc(-n3cnc4ccccc43)ccc2c1
fluorescence lifetime (in C1CCCCC1): 4.7 ns
fluorescence lifetime (in CCOC(C)=O): 4.1 ns
fluorescence lifetime (in CO): 5.1 ns

CCCn1c2cccc3oc4cccc5c4[c+](c32)c2c1cccc2n5CCC
fluorescence lifetime (in CC#N): 19.4 ns
fluorescence lifetime (in CO): 17.8 ns
fluorescence lifetime (in ClCCl): 20.6 ns
fluorescence lifetime (in OCC(O)CO): 18.3 ns

[O-]c1ccccc1/C=N/c1ccccc1/N=C/c1ccccc1[O-]
fluorescence lifetime (in C1CCOC1): 0.0036 ns

CCCCCCCCCCn1nnc(-c2ccc(C#Cc3ccc(C#Cc4ccc(-c5nnn(CCCCCCCCCC)n5)cc4)c4nc5c6ccccc6c6ccccc6c5nc34)cc2)n1
fluorescence lifetime (in C1CCOC1): 3.66 ns
fluorescence lifetime (in Cc1ccccc1): 2.52 ns
fluorescence lifetime (in ClCCl): 4.8 ns

O=Cc1cnc(-c2c3ccccc3cc3ccccc23)nc1
fluorescence lifetime (in CCO): 2.3 ns
fluorescence lifetime (in ClCCl): 6.3 ns

Oc1cccc2ccccc12
fluorescence lifetime (in C1CCCCC1): 15 ns

CC(C)(C)NC1=C2C=CC=[N+]2[B-](F)(F)n2cccc21
fluorescence lifetime (in C1CCCCC1): 6.17 ns
fluorescence lifetime (in CC(C)=O): 0.0272 ns
fluorescence lifetime (in CCO): 0.0307 ns
fluorescence lifetime (in CCOC(C)=O): 0.188 ns
fluorescence lifetime (in CO): 0.019 ns
fluorescence lifetime (in OCC(F)(F)F): 0.125 ns

Cc1cc(C)c(B(c2c(C)cc(C)cc2C)c2cc3ccc4ccccc4c3c3c2cc(N(C)C)c2ccccc23)c(C)c1
fluorescence lifetime (in C1CCCCC1): 8.8 ns

c1ccc2c(c1)OP1(=NP3(=NP(Oc4ccc5ccc6cccc7ccc4c5c67)(Oc4ccc5ccc6cccc7ccc4c5c67)=N1)Oc1ccccc1-c1ccccc1O3)Oc1ccccc1-2
fluorescence lifetime (in ClCCl): 1.23 ns

CCCCc1ccc2c(c1)c1ccc3cccc4c3c1c1c2c2cccc3ccc5c6cc(CCCC)ccc6c4c1c5c32
fluorescence lifetime (in ClCCl): 1.74 ns

CCc1c(C(=O)OC)c(C(=O)OC)c2ccc(-c3ccccc3)nn12
fluorescence lifetime (in CCCCCC): 21.1 ns

O=[N+]([O-])c1ccc([N+]2=Cc3ccc4ccccc4c3O[B-]2(F)F)cc1
fluorescence lifetime (in ClCCl): 7.6 ns

CC[N+](CC)=c1ccc2c(-c3ccccc3C(=O)O)c3c(=O)oc4c5c6c(cc4c3oc-2c1)CCCN6CCC5
fluorescence lifetime (in CCO): 0.47 ns
fluorescence lifetime (in ClC(Cl)Cl): 2.87 ns
fluorescence lifetime (in O): 0.16 ns

CCOC(=O)CN1C(=O)C2=C(c3ccc(N4CCCCC4)cc3)N(CC(=O)OCC)C(=O)C2=C1c1ccc(C#N)cc1
fluorescence lifetime (in CC#N): 3.57 ns
fluorescence lifetime (in CS(C)=O): 3.72 ns
fluorescence lifetime (in Cc1ccccc1): 4.41 ns

CC(C)c1cccc(C(C)C)c1N1C(=O)c2cccc3c(Oc4ccc(C(C)(C)C)cc4)ccc(c23)C1=O
fluorescence lifetime (in ClCCl): 1.12 ns

CCCCCCCCCCCCOc1cc2cc(N(C)C)ccc2cc1C=O
fluorescence lifetime (in ClCCl): 4.5 ns

CCCCCCCCOc1cc(/C=C/c2cc(OCCCCCCCC)c(/C=C/c3cc(OCCCCCCCC)c(/C=C/c4ccncc4)cc3OCCCCCCCC)cc2OCCCCCCCC)c(OCCCCCCCC)cc1/C=C/c1ccncc1
fluorescence lifetime (in ClCCl): 1.27 ns

[BH3-][P+]1(c2ccccc2)c2ccccc2-c2sc3ccccc3c21 (stereo not given)
fluorescence lifetime (in ClCCl): 3 ns

COc1ccc(-c2nnc(-c3cc(-c4nnc(-c5ccc(OC)cc5)o4)c(-n4c5ccccc5c5ccccc54)cc3-n3c4ccccc4c4ccccc43)o2)cc1
fluorescence lifetime (in Cc1ccccc1): 5.1 ns
fluorescence lifetime (in O=P(c1ccccc1)(c1ccccc1)c1ccccc1Oc1ccccc1P(=O)(c1ccccc1)c1ccccc1): 7.3 ns

CN(C)c1ccc(C#Cc2ccc(C#Cc3ccc(C#Cc4ccccc4C#N)cc3C#N)cc2C#N)cc1
fluorescence lifetime (in C1CCOC1): 1.7 ns
fluorescence lifetime (in CC#N): 1.66 ns
fluorescence lifetime (in CN(C)C=O): 1.86 ns
fluorescence lifetime (in ClC(Cl)Cl): 1.78 ns
fluorescence lifetime (in c1ccccc1): 1.74 ns

CC1=CC(C)=[N+]2C1=Cc1c(C)cc(C)n1[B-]2(F)F
fluorescence lifetime (in CCCCCC): 5.85 ns
fluorescence lifetime (in CO): 5.95 ns
fluorescence lifetime (in ClCCl): 5.73 ns

COc1ccccc1C1=C2C(C)=CC(C)=[N+]2[B-](F)(F)n2c(C)cc(C)c21
fluorescence lifetime (in C1CCOC1): 6.42 ns
fluorescence lifetime (in CCCCCC): 5.78 ns

O=C1c2ccccc2C(=O)C1C1C(=O)c2c3ccccc3cc3cc4ccccc4c1c23 (stereo not given)
fluorescence lifetime (in C1CCOC1): 13.5 ns
fluorescence lifetime (in CC#N): 8.4 ns
fluorescence lifetime (in CCCCCC): 12.9 ns
fluorescence lifetime (in Cc1ccccc1): 14.1 ns
fluorescence lifetime (in ClCCl): 11 ns

CN(C)c1ccc(C2=Nc3sc4cc(F)ccc4[n+]3[B-](F)(F)O2)cc1
fluorescence lifetime (in Cc1ccccc1): 1.68 ns

Nc1cc([NH3+])cc(-c2nc3ccccc3s2)c1
fluorescence lifetime (in O): 3.87 ns

CN(C)c1ccc(C2=Nc3scc(-c4ccc([N+](=O)[O-])cc4)[n+]3[B-](F)(F)O2)cc1
fluorescence lifetime (in C1CCOC1): 1.64 ns

C[Si](C)(C)C#Cc1cccc2ccccc12
fluorescence lifetime (in C1CCCCC1): 9 ns

Nc1ccc2ccc3cccc4ccc1c2c34
fluorescence lifetime (in C1CCCCC1): 5.6 ns

C1=Cc2nc1c(-c1cccs1)c1ccc([nH]1)c(-c1cccs1)c1nc(c(-c3cccs3)c3ccc([nH]3)c2-c2cccs2)C=C1
fluorescence lifetime (in CN(C)C=O): 2.09 ns
fluorescence lifetime (in ClCCl): 9.27 ns

CCCCc1cc(-c2cccc(COC)c2)oc1-c1cccc(-c2oc(-c3cccc(COC)c3)cc2CCCC)c1
fluorescence lifetime (in ClC(Cl)Cl): 1.4 ns

Cc1ccc(N(c2ccc(C)cc2)c2ccc(-c3ccc4c(c3)C(=O)c3ccccc3C4=O)cc2)cc1
fluorescence lifetime (in CCCCCC): 6.89 ns
fluorescence lifetime (in CCOCC): 1.27 ns
fluorescence lifetime (in Cc1ccccc1): 5.75 ns
fluorescence lifetime (in ClC(Cl)(Cl)Cl): 9.25 ns

COC(=O)CC1(C(=O)OC)Oc2c(c(C(C)=O)c3c(c2C(C)=O)OCO3)O1
fluorescence lifetime (in CC#N): 22.4 ns

c1ccc(N(c2ccccc2)c2ccc(-c3ccc(-c4ccc(-c5cccs5)c5nsnc45)s3)cc2)cc1
fluorescence lifetime (in ClC(Cl)Cl): 6.62 ns

CN(C)c1ccc2c(-c3ccc(C(=O)[O-])cc3C(=O)[O-])c3ccc(=[N+](C)C)cc-3oc2c1
fluorescence lifetime (in CCO): 3.26 ns
fluorescence lifetime (in O): 2.44 ns

Nc1cccc2c1-c1ccccc1C2=O
fluorescence lifetime (in C1CCCCC1): 3.2 ns
fluorescence lifetime (in CC#N): 4.2 ns
fluorescence lifetime (in c1ccccc1): 9.3 ns

COc1ccc(C#Cc2ccc(C#Cc3ccc(P(=O)(c4ccccc4)c4ccccc4)cc3)cc2)cc1
fluorescence lifetime (in C1CCCCC1): 0.63 ns
fluorescence lifetime (in C1COCCO1): 0.73 ns
fluorescence lifetime (in CC#N): 1.13 ns
fluorescence lifetime (in CCO): 1.03 ns
fluorescence lifetime (in CS(C)=O): 1.17 ns
fluorescence lifetime (in ClC(Cl)Cl): 0.78 ns
fluorescence lifetime (in ClCCl): 0.87 ns

C=CC12N=N[C@](C=C)(C3C4CCC(C4)C31)C1[C@@H]3CC[C@@H](C3)[C@H]12 (stereo not given in full)
fluorescence lifetime (in CC#N): 268 ns

CCn1c2ccccc2c2cc(C#Cc3cc(C#Cc4ccc5c(c4)c4ccccc4n5CC)ncn3)ccc21
fluorescence lifetime (in C1CCOC1): 2.32 ns

O=C1c2cc(-c3ccccc3)ccc2-c2ccc(-c3ccccc3)cc21
fluorescence lifetime (in C1CCOC1): 1 ns

c1ccc(-c2nc(-c3ccccc3)nc(-c3cc(-n4c5ccccc5c5ncccc54)cc(-n4c5ccccc5c5ncccc54)c3)n2)cc1
fluorescence lifetime (in O=P(c1ccccc1)(c1ccccc1)c1ccc2oc3ccc(P(=O)(c4ccccc4)c4ccccc4)cc3c2c1): 6.6 ns

COc1ccc(-c2cc(-c3ccc(N(C)C)cc3)nc(-c3ccccc3)n2)cc1
fluorescence lifetime (in ClC(Cl)Cl): 7.1 ns

Cn1nc(-c2ccccc2)c2n[nH]nc2/c1=N\c1ccccn1
fluorescence lifetime (in CC#N): 0.33 ns
fluorescence lifetime (in CCO): 0.44 ns
fluorescence lifetime (in Cc1ccccc1): 0.34 ns

C(=C\c1ccc(-c2ccc(/C=C/c3ccc(-n4c5ccccc5c5ccccc54)cc3)s2)s1)/c1ccc(-n2c3ccccc3c3ccccc32)cc1
fluorescence lifetime (in C1CCOC1): 1.06 ns
fluorescence lifetime (in CC#N): 1.08 ns
fluorescence lifetime (in CC(C)=O): 1.08 ns
fluorescence lifetime (in CN(C)C=O): 1.08 ns
fluorescence lifetime (in Cc1ccccc1): 1.05 ns

O=C(O)CCCCCn1c2ccc(Br)cc2c(=O)c2cc3c(cc21)c(=O)c1cc(Br)ccc1n3CCCCCC(=O)O
fluorescence lifetime (in CO): 17.3 ns

COc1ccc(C#CC2=C3CCc4ccccc4C3=[O+][B-](F)(F)O2)cc1
fluorescence lifetime (in ClCCl): 1.49 ns

CC(C)(C)c1ccc2c(c1)c1cc(C(C)(C)C)ccc1n2-c1ccc(C#Cc2ccc(C#Cc3ccc(C=C(C#N)C#N)cc3)cc2)cc1
fluorescence lifetime (in ClCCl): 3.7 ns

Cc1ccc(C2=C3C=C(I)C=[N+]3[B-](F)(F)n3c2cc(I)c3I)cc1
fluorescence lifetime (in C1CCCCC1): 0.327 ns
fluorescence lifetime (in CC#N): 0.142 ns
fluorescence lifetime (in CCO): 0.196 ns
fluorescence lifetime (in CCOC(C)=O): 0.207 ns
fluorescence lifetime (in CO): 0.179 ns
fluorescence lifetime (in OCC(F)(F)F): 0.185 ns

CC(=O)N(Cc1ccccn1)c1c2ccccc2c2c3c(cccc13)C(=O)N(Cc1ccccn1)C2=O
fluorescence lifetime (in CCO): 1.66 ns

CC(C)[Si](C#CC1=CC2=c3cc(C#C[Si](C(C)C)(C(C)C)C(C)C)c4nc(C(F)(F)C(F)(F)C(F)(F)F)nc5c(C#C[Si](C(C)C)(C(C)C)C(C)C)cc(c3c54)C3=CC(C#C[Si](C(C)C)(C(C)C)C(C)C)=C4N=C(C(F)(F)C(F)(F)C(F)(F)F)N=C1C4C32)(C(C)C)C(C)C (stereo not given)
fluorescence lifetime (in C1CCOC1): 2 ns

CN(C)c1ccc2c(c1)C(=O)c1ccccc1-2
fluorescence lifetime (in C1CCCCC1): 3.3 ns
fluorescence lifetime (in c1ccccc1): 0.79 ns

COc1ccc(-c2c(-c3ccc(OC)cc3)c3c4c(cccc4c2-c2ccccc2)C(=O)c2ccccc2-3)cc1
fluorescence lifetime (in CC#N): 2.3 ns
fluorescence lifetime (in CO): 0.8 ns

CCOC(=O)CCCCCn1c2ccc(N)cc2c(=O)c2cc3c(cc21)c(=O)c1cc(N)ccc1n3CCCCCC(=O)OCC
fluorescence lifetime (in ClCCl): 15.6 ns

c1ccc(N2N=C(c3cccc4ccccc34)CC2c2ccc3ccc4cccc5ccc2c3c45)cc1 (stereo not given)
fluorescence lifetime (in ClCCl): 2.01 ns
